Experimental data published in ChEMBL document CHEMBL1275550, “In vitro activity of doripenem, a carbapenem for the treatment of challenging infections caused by gram-negative bacteria, against recent clinical isolates from the United States” (2008).
≈ marks a conversion by molar mass, not a printed value.

Legend:
[1] = system: Serratia marcescens; test: Antimicrobial activity against Ceftazidime susceptible Serratia marcescens assessed as resistant isolate by broth microdilution method; assay type: functional
[2] = system: Citrobacter; test: Antimicrobial activity against Citrobacter with nonderepressed AmpC beta-lactamsae by broth microdilution method; assay type: functional
[3] = system: Enterobacteriaceae; test: Antimicrobial activity against ceftazidime-susceptible Enterobacteriaceae assessed as resistant isolate by broth microdilution method; assay type: functional
[4] = system: Klebsiella pneumoniae; test: Antimicrobial activity against Non-ESBL Klebsiella pneumoniae by broth microdilution method; assay type: functional
[5] = system: Pseudomonas aeruginosa; test: Antimicrobial activity against imipenem non-susceptible Pseudomonas aeruginosa by broth microdilution method; assay type: functional
[6] = system: Enterobacter cloacae; test: Antimicrobial activity against Enterobacter cloacae with nonderepressed AmpC beta-lactamsae assessed as susceptible isolate by broth microdilution method; assay type: functional
[7] = system: Klebsiella pneumoniae; test: Antimicrobial activity against ESBL producing Klebsiella pneumoniae by broth microdilution method; assay type: functional
[8] = system: Proteus mirabilis; test: Antimicrobial activity against Non-ESBL Proteus mirabilis assessed as susceptible isolate by broth microdilution method; assay type: functional
[9] = system: Enterobacter cloacae; test: Antimicrobial activity against Enterobacter cloacae with derepressed AmpC beta-lactamsae assessed as intermediate isolate by broth microdilution method; assay type: functional
[10] = system: Pseudomonas aeruginosa; test: Antimicrobial activity against Pseudomonas aeruginosa isolated from patient by broth microdilution method
[11] = system: Pseudomonas aeruginosa; test: Antimicrobial activity against Ceftazidime susceptible Pseudomonas aeruginosa by broth microdilution method; assay type: functional
[12] = system: Enterobacter cloacae; test: Antimicrobial activity against Enterobacter cloacae with nonderepressed AmpC beta-lactamsae assessed as intermediate isolate by broth microdilution method; assay type: functional
[13] = system: Escherichia coli; test: Antimicrobial activity against Non-ESBL Escherichia coli by broth microdilution method; assay type: functional
[14] = system: Pseudomonas aeruginosa; test: Antimicrobial activity against imipenem susceptible Pseudomonas aeruginosa by broth microdilution method; assay type: functional
[15] = system: Escherichia coli; test: Antimicrobial activity against ESBL producing Escherichia coli assessed as intermediate isolate by broth microdilution method; assay type: functional
[16] = system: Pseudomonas aeruginosa; test: Antimicrobial activity against Ceftazidime susceptible Pseudomonas aeruginosa assessed as resistant isolate by broth microdilution method; assay type: functional
[17] = system: Escherichia coli; test: Antimicrobial activity against ESBL producing Escherichia coli by broth microdilution method; assay type: functional
[18] = system: Acinetobacter; test: Antimicrobial activity against imipenem susceptible Acinetobacter assessed as intermediate isolate by broth microdilution method; assay type: functional
[19] = system: Enterobacter cloacae; test: Antimicrobial activity against Enterobacter cloacae with derepressed AmpC beta-lactamsae by broth microdilution method; assay type: functional
[20] = system: Acinetobacter; test: Antimicrobial activity against imipenem susceptible Acinetobacter by broth microdilution method; assay type: functional
[21] = system: Pseudomonas aeruginosa; test: Antimicrobial activity against Ceftazidime susceptible Pseudomonas aeruginosa assessed as intermediate isolate by broth microdilution method; assay type: functional
[22] = system: Serratia marcescens; test: Antimicrobial activity against Ceftazidime non-susceptible Serratia marcescens by broth microdilution method; assay type: functional
[23] = system: Proteus mirabilis; test: Antimicrobial activity against Non-ESBL Proteus mirabilis assessed as intermediate isolate by broth microdilution method; assay type: functional
[24] = system: Serratia marcescens; test: Antimicrobial activity against Ceftazidime susceptible Serratia marcescens by broth microdilution method; assay type: functional
[25] = system: Klebsiella pneumoniae; test: Antimicrobial activity against ESBL producing Klebsiella pneumoniae assessed as intermediate isolate by broth microdilution method; assay type: functional
[26] = system: Citrobacter; test: Antimicrobial activity against Citrobacter with derepressed AmpC beta-lactamsae assessed as susceptible isolate by broth microdilution method; assay type: functional
[27] = system: Citrobacter; test: Antimicrobial activity against Citrobacter with nonderepressed AmpC beta-lactamsae assessed as susceptible isolate by broth microdilution method; assay type: functional
[28] = system: Enterobacteriaceae; test: Antimicrobial activity against Ceftazidime non-susceptible Enterobacteriaceae assessed as resistant isolate by broth microdilution method; assay type: functional
[29] = system: Pseudomonas aeruginosa; test: Antimicrobial activity against Ceftazidime susceptible Pseudomonas aeruginosa assessed as susceptible isolate by broth microdilution method; assay type: functional
[30] = system: Serratia marcescens; test: Antimicrobial activity against Ceftazidime susceptible Serratia marcescens assessed as intermediate isolate by broth microdilution method; assay type: functional
[31] = system: Enterobacteriaceae; test: Antimicrobial activity against Ceftazidime non-susceptible Enterobacteriaceae assessed as susceptible isolate by broth microdilution method; assay type: functional
[32] = system: Pseudomonas aeruginosa; test: Antimicrobial activity against imipenem susceptible Pseudomonas aeruginosa assessed as susceptible isolate by broth microdilution method; assay type: functional
[33] = system: Proteus mirabilis; test: Antimicrobial activity against Non-ESBL Proteus mirabilis by broth microdilution method; assay type: functional
[34] = system: Pseudomonas aeruginosa; test: Antimicrobial activity against Ceftazidime non-susceptible Pseudomonas aeruginosa assessed as resistant isolate by broth microdilution method; assay type: functional
[35] = system: Proteus mirabilis; test: Antimicrobial activity against ESBL producing Proteus mirabilis by broth microdilution method; assay type: functional
[36] = system: Pseudomonas aeruginosa; test: Antimicrobial activity against Ceftazidime non-susceptible Pseudomonas aeruginosa assessed as intermediate isolate by broth microdilution method; assay type: functional
[37] = system: Pseudomonas aeruginosa; test: Antimicrobial activity against Pseudomonas aeruginosa isolated from ICU patient assessed as resistant isolate by broth microdilution method
[38] = system: Pseudomonas aeruginosa; test: Antimicrobial activity against Ceftazidime non-susceptible Pseudomonas aeruginosa assessed as susceptible isolate by broth microdilution method; assay type: functional
[39] = system: Citrobacter; test: Antimicrobial activity against Citrobacter by broth microdilution method; assay type: functional
[40] = system: Citrobacter; test: Antimicrobial activity against Citrobacter assessed as susceptible isolate by broth microdilution method; assay type: functional
[41] = system: Pseudomonas aeruginosa; test: Antimicrobial activity against Pseudomonas aeruginosa assessed as susceptible isolate by broth microdilution method; assay type: functional
[42] = system: Enterobacteriaceae; test: Antimicrobial activity against Enterobacteriaceae assessed as susceptible isolate by broth microdilution method; assay type: functional
[43] = system: Enterobacteriaceae; test: Antimicrobial activity against Enterobacteriaceae by broth microdilution method; assay type: functional
[44] = system: Klebsiella pneumoniae; test: Antimicrobial activity against Klebsiella pneumoniae assessed as susceptible isolate by broth microdilution method; assay type: functional
[45] = system: Streptococcus pneumoniae; test: Antimicrobial activity against penicillin-susceptible Streptococcus pneumoniae by broth microdilution method; assay type: functional; settings: Streptococcus pneumoniae
[46] = system: Staphylococcus aureus; test: Antimicrobial activity against methicillin-susceptible Staphylococcus aureus by broth microdilution method; assay type: functional; settings: Staphylococcus aureus
[47] = system: Serratia marcescens; test: Antimicrobial activity against Serratia marcescens by broth microdilution method; assay type: functional
[48] = system: Klebsiella pneumoniae; test: Antimicrobial activity against Klebsiella pneumoniae by broth microdilution method; assay type: functional
[49] = system: Streptococcus pneumoniae; test: Antimicrobial activity against penicillin-resistant Streptococcus pneumoniae by broth microdilution method; assay type: functional; settings: Streptococcus pneumoniae
[50] = system: Escherichia coli; test: Antimicrobial activity against Escherichia coli assessed as susceptible isolate by broth microdilution method; assay type: functional
[51] = system: Pseudomonas aeruginosa; test: Antimicrobial activity against Pseudomonas aeruginosa by broth microdilution method; assay type: functional
[52] = system: Escherichia coli; test: Antimicrobial activity against Escherichia coli by broth microdilution method; assay type: functional
[53] = system: Serratia marcescens; test: Antimicrobial activity against Serratia marcescens assessed as susceptible isolate by broth microdilution method; assay type: functional
[54] = system: Acinetobacter; test: Antimicrobial activity against Acinetobacter by broth microdilution method; assay type: functional

CC(C)(O/N=C(\C(=O)N[C@@H]1C(=O)N2C(C(=O)[O-])=C(C[n+]3ccccc3)CS[C@H]12)c1csc(N)n1)C(=O)O [CEFTAZIDIME]
Activity [1]: 0% | MIC50 [2]: 0.25 µg/mL (≈ 0.457 µM) | MIC90 [2]: 1 µg/mL (≈ 1.83 µM) | Activity [3]: 0% | MIC50 [4]: 0.12 µg/mL (≈ 0.22 µM) | MIC90 [4]: 0.5 µg/mL (≈ 0.915 µM) | MIC50 [5]: 4 µg/mL (≈ 7.32 µM) | MIC90 [5]: > 32 µg/mL | Activity [6]: 93.6% | MIC50 [7]: > 32 µg/mL | MIC90 [7]: > 32 µg/mL | Activity [8]: 99.5% | Activity [9]: 1.9% | Activity [10]: 2.3% | MIC50 [11]: 2 µg/mL (≈ 3.66 µM) | MIC90 [11]: 4 µg/mL (≈ 7.32 µM) | Activity [12]: 0.7% | MIC50 [13]: 0.12 µg/mL (≈ 0.22 µM) | MIC90 [13]: 0.25 µg/mL (≈ 0.457 µM) | MIC50 [14]: 2 µg/mL (≈ 3.66 µM) | MIC90 [14]: 8 µg/mL (≈ 14.6 µM) | Activity [15]: 10% | Activity [16]: 0% | MIC50 [17]: 32 µg/mL (≈ 58.5 µM) | MIC90 [17]: > 32 µg/mL | Activity [18]: 5.5% | MIC50 [19]: > 32 µg/mL | MIC90 [19]: > 32 µg/mL | MIC50 [20]: 4 µg/mL (≈ 7.32 µM) | MIC90 [20]: > 32 µg/mL | Activity [21]: 0% | MIC [22]: > 32 µg/mL | MIC50 [22]: > 32 µg/mL | MIC90 [22]: > 32 µg/mL | Activity [23]: 0.2% | MIC50 [24]: 0.12 µg/mL (≈ 0.22 µM) | MIC90 [24]: 0.5 µg/mL (≈ 0.915 µM) | Activity [25]: 0% | Activity [26]: 0% | Activity [27]: 98.3% | Activity [28]: 92.4% | Activity [29]: 100% | Activity [30]: 0% | Activity [31]: 0% | Activity [32]: 90.9% | MIC [33]: ≤ 0.03 µg/mL | MIC50 [33]: ≤ 0.03 µg/mL | MIC90 [33]: 0.06 µg/mL (≈ 0.11 µM) | Activity [34]: 76.4% | MIC [35]: 8 µg/mL (≈ 14.6 µM) | Activity [36]: 23.6% | Activity [37]: 14.4% | Activity [38]: 0%

C[C@@H](O)[C@H]1C(=O)N2C(C(=O)O)=C(SCCNC=N)C[C@H]12 [IMIPENEM ANHYDROUS]
MIC50 [39]: 1 µg/mL (≈ 3.34 µM) | MIC90 [39]: 2 µg/mL (≈ 6.68 µM) | Activity [1]: 0.8% | MIC50 [2]: 0.5 µg/mL (≈ 1.67 µM) | MIC90 [2]: 2 µg/mL (≈ 6.68 µM) | Activity [40]: 99.8% | Activity [3]: 0.1% | MIC50 [4]: 0.5 µg/mL (≈ 1.67 µM) | MIC90 [4]: 1 µg/mL (≈ 3.34 µM) | Activity [41]: 76.3% | MIC50 [5]: 16 µg/mL (≈ 53.4 µM) | MIC90 [5]: > 32 µg/mL | Activity [42]: 99.4% | Activity [6]: 99.5% | MIC50 [7]: 0.5 µg/mL (≈ 1.67 µM) | MIC90 [7]: 1 µg/mL (≈ 3.34 µM) | Activity [8]: 97.3% | Activity [9]: 0% | Activity [10]: 7.9% | MIC50 [11]: 4 µg/mL (≈ 13.4 µM) | MIC90 [11]: 16 µg/mL (≈ 53.4 µM) | MIC50 [43]: 0.5 µg/mL (≈ 1.67 µM) | MIC90 [43]: 2 µg/mL (≈ 6.68 µM) | Activity [12]: 0.5% | MIC50 [13]: 0.25 µg/mL (≈ 0.835 µM) | MIC90 [13]: 0.5 µg/mL (≈ 1.67 µM) | MIC50 [14]: 2 µg/mL (≈ 6.68 µM) | MIC90 [14]: 4 µg/mL (≈ 13.4 µM) | Activity [44]: 99.7% | MIC50 [45]: ≤ 0.015 µg/mL | MIC90 ([45]; read-out: MIC90): ≤ 0.015 µg/mL | Activity [15]: 0% | MIC50 ([46]; read-out: MIC50): 0.03 µg/mL (≈ 0.1 µM) | MIC90 ([46]; read-out: MIC90): 0.03 µg/mL (≈ 0.1 µM) | Activity [16]: 13.1% | MIC50 [47]: 2 µg/mL (≈ 6.68 µM) | MIC90 [47]: 4 µg/mL (≈ 13.4 µM) | MIC50 [17]: 0.5 µg/mL (≈ 1.67 µM) | MIC90 [17]: 1 µg/mL (≈ 3.34 µM) | Activity [18]: 0% | MIC50 [48]: 0.5 µg/mL (≈ 1.67 µM) | MIC90 [48]: 1 µg/mL (≈ 3.34 µM) | MIC50 [19]: 1 µg/mL (≈ 3.34 µM) | MIC90 [19]: 2 µg/mL (≈ 6.68 µM) | MIC50 ([49]; read-out: MIC50): 0.5 µg/mL (≈ 1.67 µM) | MIC90 ([49]; read-out: MIC90): 1 µg/mL (≈ 3.34 µM) | MIC50 [20]: 0.5 µg/mL (≈ 1.67 µM) | MIC90 [20]: 4 µg/mL (≈ 13.4 µM) | Activity [21]: 7.6% | MIC50 [22]: 2 µg/mL (≈ 6.68 µM) | MIC90 [22]: 4 µg/mL (≈ 13.4 µM) | Activity [23]: 2.5% | Activity [50]: 100% | MIC50 [24]: 2 µg/mL (≈ 6.68 µM) | MIC90 [24]: 4 µg/mL (≈ 13.4 µM) | Activity [25]: 2.3% | MIC50 [51]: 4 µg/mL (≈ 13.4 µM) | MIC90 [51]: 32 µg/mL (≈ 107 µM) | MIC50 [52]: 0.25 µg/mL (≈ 0.835 µM) | MIC90 [52]: 0.5 µg/mL (≈ 1.67 µM) | Activity [53]: 98.9% | Activity [26]: 100% | Activity [27]: 99.8% | Activity [28]: 1% | Activity [29]: 79.3% | Activity [30]: 0.3% | Activity [31]: 97.3% | Activity [32]: 100% | MIC50 [33]: 2 µg/mL (≈ 6.68 µM) | MIC90 [33]: 4 µg/mL (≈ 13.4 µM) | Activity [34]: 36.4% | MIC [35]: 0.5 µg/mL (≈ 1.67 µM) | Activity [36]: 8.2% | MIC50 [54]: 1 µg/mL (≈ 3.34 µM) | MIC90 [54]: > 32 µg/mL | Activity [37]: 26.6% | Activity [38]: 55.5%
